According to patent publication US20090047246A1, “NOVEL INHIBITORS OF HEPATITIS C VIRUS REPLICATION” (InterMune, Inc., priority 2007, published 2009):
Like-named read-outs stand apart in the source and are kept apart here.

Target: T1, HCV NS3 helicase (Hepatitis C virus genotype 1b, UniProt P26663)
T1 construct: full-length NS3 (1-631), purified at Array BioPharma
Test: HCV Helicase Prompt FRET Assay (Example A)
Assay type: biochemical
Details: read-out: IC50 Activity
In short: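 Full-length NS3 (1-631), 5 or 6 nM, preincubated 5 min with compound, then unwinds 50 nM FAM/BHQ-1 duplex substrate with 250 nM capture strand and 300 μM ATP in 25 mM MOPS pH 7.0, 1.5 mM MgCl2, 0.005% Triton X-100, 2% DMSO. Fluorescence (485/535 nm) followed ~30 min at room temperature; IC50 from initial rates by 4- or 5-parameter fit.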

[1] = HCV NS3 helicase, tables do not say whether Example A or Example B assay
[2] = Table 23, compounds made using Scheme 30
[3] = Table 25, compounds made using Scheme 32
[4] = Table 26, compounds made using Scheme 33

T1 sequence (P26663 1027-1657): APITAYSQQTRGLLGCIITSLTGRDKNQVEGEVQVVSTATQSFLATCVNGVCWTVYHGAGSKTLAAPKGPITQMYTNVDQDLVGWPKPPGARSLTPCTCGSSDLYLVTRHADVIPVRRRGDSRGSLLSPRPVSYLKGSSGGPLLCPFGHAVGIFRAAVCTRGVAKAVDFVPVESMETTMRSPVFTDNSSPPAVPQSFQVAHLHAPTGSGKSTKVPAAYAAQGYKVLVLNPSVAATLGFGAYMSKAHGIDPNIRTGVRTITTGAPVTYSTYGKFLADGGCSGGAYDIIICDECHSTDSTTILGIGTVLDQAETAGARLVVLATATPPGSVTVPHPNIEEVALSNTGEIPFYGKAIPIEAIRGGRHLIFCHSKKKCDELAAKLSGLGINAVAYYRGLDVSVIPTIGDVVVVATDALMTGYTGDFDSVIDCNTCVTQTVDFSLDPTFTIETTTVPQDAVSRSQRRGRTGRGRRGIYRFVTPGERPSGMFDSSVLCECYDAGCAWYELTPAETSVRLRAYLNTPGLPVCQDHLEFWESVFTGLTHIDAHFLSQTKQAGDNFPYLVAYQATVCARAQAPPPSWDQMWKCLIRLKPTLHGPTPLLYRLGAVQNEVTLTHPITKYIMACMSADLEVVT

| SMILES | IC50 [1] | IC50 [2] | other results |
| --- | --- | --- | --- |
| O=C(O)Cc1cn(Cc2ccc(Oc3cc(F)ccc3F)cc2)c2ccccc12 [Example 586] | < 10 µM |  |  |
| O=C(O)Cc1cn(Cc2ccc(Oc3c(F)cccc3F)cc2)c2ccccc12 [Example 587] | < 10 µM |  |  |
| O=C(O)Cc1cn(Cc2ccc(Oc3cccc(Cl)c3Cl)cc2)c2ccccc12 [Example 588] | < 10 µM |  |  |
| O=C(O)Cc1cn(Cc2ccc(Oc3ccc(Cl)cc3Cl)cc2)c2ccccc12 [Example 589] | < 10 µM |  |  |
| O=C(O)Cc1cn(Cc2ccc(Oc3cc(Cl)ccc3Cl)cc2)c2ccccc12 [Example 590] | < 10 µM |  |  |
| O=C(O)Cc1cn(Cc2ccc(Oc3ccc(C(F)(F)F)cc3C(F)(F)F)cc2)c2ccccc12 [Example 591] |  | < 10 µM |  |
| O=C(O)Cc1cn(Cc2ccc(Oc3c(C(F)(F)F)cccc3C(F)(F)F)cc2)c2ccccc12 [Example 592] |  | 10 to 50 µM |  |
| O=C(O)Cc1cn(Cc2cccc(Oc3ccc(F)cc3F)c2)c2ccccc12 [Example 593] |  | < 10 µM |  |
| O=C(O)Cc1cn(Cc2cccc(Oc3c(F)cccc3F)c2)c2ccccc12 [Example 594] |  | < 10 µM |  |
| O=C(O)Cc1cn(Cc2cccc(Oc3cccc(Cl)c3Cl)c2)c2ccccc12 [Example 595] |  | < 10 µM |  |
| O=C(O)Cc1cn(Cc2cccc(Oc3ccc(Cl)cc3Cl)c2)c2ccccc12 [Example 596] |  | < 10 µM |  |
| O=C(O)Cc1cn(Cc2cccc(Oc3ccc(C(F)(F)F)cc3C(F)(F)F)c2)c2ccccc12 [Example 597] |  | < 10 µM |  |
| O=C(O)Cc1cn(Cc2cccc(Oc3cc(Cl)ccc3Cl)c2)c2ccccc12 [Example 599] |  | 10 to 50 µM |  |
| CCOC(=O)Cc1cn(Cc2ccc(Oc3ccc(C(F)(F)F)cc3)cc2)c2cc(-c3cc(N)cc(N)c3)ccc12 [Example 608] |  |  | IC50 [3]: 10 to 50 µM |
| CCOC(=O)Cc1cn(Cc2ccc(Oc3cccc(OCC)c3)cc2)c2cc(-c3cc(N)cc(N)c3)ccc12 [Example 609] |  |  | IC50 [3]: 10 to 50 µM |
| CCOC(=O)Cc1cn(Cc2ccc(Oc3cccc(OC)c3)cc2)c2cc(-c3cc(N)cc(N)c3)ccc12 [Example 610] |  |  | IC50 [3]: 10 to 50 µM |
| CCOC(=O)Cc1cn(Cc2ccc(Oc3cccc(Cl)c3)cc2)c2cc(-c3cc(N)cc(N)c3)ccc12 [Example 612] |  |  | IC50 [3]: < 10 µM |
| CCOC(=O)Cc1cn(Cc2ccc(Oc3ccc(Cl)cc3)cc2)c2cc(-c3cc(N)cc(N)c3)ccc12 [Example 613] |  |  | IC50 [3]: 10 to 50 µM |
| O=C(O)Cc1cn(Cc2csc3ccc(Cl)cc23)c2cc(-c3ccccc3)ccc12 [Example 614] |  |  | IC50 [4]: < 10 µM |
| Nc1ccc(CO)c(-c2ccc3c(CC(=O)O)cn(Cc4csc5ccc(Cl)cc45)c3c2)n1 [Example 615] |  |  | IC50 [4]: 10 to 50 µM |
| CCC(=O)Oc1cn(Cc2csc3ccc(Cl)cc23)c2cc(-c3ccccc3)ccc12 [Example 616] |  |  | IC50 [4]: > 50 µM |
| CC(C)c1ccc(Cn2cc(CC(=O)O)c3ccc(-c4cc(N)cc(N)c4)cc32)cc1 [Example 619] |  |  | IC50 (Table 28, compounds made using Scheme 35): < 10 µM |
| Nc1ncc(C(=O)O)c(-c2ccc3c(CC(=O)O)cn(Cc4csc5ccc(Cl)cc45)c3c2)n1 [Example 621] |  |  | IC50 (Table 29, compounds made using Scheme 36): > 50 µM |

Continued, in another order:

| IC50 [1] | IC50 [2] | SMILES | other results |
| --- | --- | --- | --- |
|  | 10 to 50 µM | O=C(O)Cc1cn(Cc2cccc(Oc3c(Cl)cccc3Cl)c2)c2ccccc12 [Example 600] |  |
| > 50 µM |  | CCOC(=O)Cc1cn(Cc2ccc(Oc3cccc(Cl)c3)cc2)c2cc(-c3cccc(OC(C)=O)c3)ccc12 [Example 601] |  |
| 10 to 50 µM |  | CCOC(=O)Cc1cn(Cc2ccc(Oc3cccc(OC)c3)cc2)c2cc(-c3cccc(OC(C)=O)c3)ccc12 [Example 602] |  |
| > 50 µM |  | CCOC(=O)Cc1cn(Cc2ccc(Oc3cccc(F)c3)cc2)c2cc(-c3cccc(OC(C)=O)c3)ccc12 [Example 603] |  |
| > 50 µM |  | CCOC(=O)Cc1cn(Cc2ccc(Oc3cccc(OCC)c3)cc2)c2cc(-c3cccc(OC(C)=O)c3)ccc12 [Example 604] |  |
| > 50 µM |  | CCOC(=O)Cc1cn(Cc2ccc(Oc3ccc(Cl)cc3)cc2)c2cc(-c3cccc(OC(C)=O)c3)ccc12 [Example 605] |  |
| 10 to 50 µM |  | CCOC(=O)Cc1cn(Cc2ccc(Oc3ccc(C(F)(F)F)cc3)cc2)c2cc(-c3cccc(OC(C)=O)c3)ccc12 [Example 606] |  |
